Test results reported in patent publication US8420312B2, “Genes associated with canine osteoarthritis and related methods and compositions” (Nestec S.A., priority 2004, dated 2013).

Key:
Format in all cases: cell-based, canine
OA-Associated Genes [1] = assay: Microarray analysis of chondrocyte beads treated with 1,25 D3 or 24,25 D3; conditions: summary statement, Tables 19-20
Description: Microarray probes were generated by PCR-amplifying clones isolated from differential display. Probes were spotted in duplicate onto poly-L-lysine coated slides using a GMS417 (Affymetrix) arrayer. Osteoarthritic cartilage samples were obtained from the femoral heads of clinically diagnosed canines undergoing total […] replacement. RNA was hybridized to the slides using the HC ExpressArray ([…]) kit and visualized using a GMS418 (Affymetrix) scanner. The […] (Biodiscovery) program was used for spot finding and subsequent data analysis was performed using GeneSight (Biodiscovery). Expression levels are represented after background subtraction, log(base 2) transformation and global slide signal normalization. […] Scanned images representing RNA transcripts bound to specific clones were quantified and checked for spot quality control using […] analysis software (BioDiscovery). Quantified images were analyzed using […] analysis software (BioDiscovery). The analysis represented subtraction of background surrounding the spots, averaging spot replicates, deletion of clone information representing clone hybridization signals not greater than 200 above background on all samples, log (base 2) transformation and global normalization of each slide (values expressed as percent of average spot intensity). […]

OA-Associated Genes [2] = assay: Microarray analysis of chondrocyte beads treated with glucosamine; conditions: summary statement, Tables 13-18
Description: (§1) Microarray probes were generated by PCR-amplifying clones isolated from differential display. Probes were spotted in duplicate onto poly-L-lysine coated slides using a GMS417 (Affymetrix) arrayer. Osteoarthritic cartilage samples were obtained from the femoral heads of clinically diagnosed canines undergoing total […] replacement. RNA was hybridized to the slides using the HC ExpressArray (Digene) kit and visualized using a GMS418 (Affymetrix) scanner. The Imagene (Biodiscovery) program was used for spot finding and subsequent data analysis was performed using GeneSight (Biodiscovery). Expression levels are represented after background subtraction, log(base 2) transformation and global slide signal normalization. […]
(§2) Scanned images representing RNA transcripts bound to specific clones were quantified and checked for spot quality control using Imagene analysis software (BioDiscovery). Quantified images were analyzed using Genesight analysis software (BioDiscovery). The analysis represented subtraction of background surrounding the spots, averaging spot replicates, deletion of clone information representing clone hybridization signals not greater than 200 above background on all samples, log (base 2) transformation and global normalization of each slide (values expressed as percent of average spot intensity). […]

OA-Associated Genes [3] = assay: Microarray analysis of chondrocytes enriched with EPA or AA; conditions: summary statement, Tables 21-23
Description: as §1, §2

OA-Associated Genes [4] = assay: Microarray analysis of chondrocyte beads treated with chondroitin sulfate; conditions: summary statement, Tables 7-12
Description: as §1, §2

C=C1/C(=C\C=C2/CCC[C@]3(C)[C@@H]([C@H](C)CCCC(C)(C)O)CC[C@@H]23)C[C@@H](O)C[C@@H]1O [1α,25-dihydroxyvitamin D3]
effect on expression of OA-related genes (OA-Associated Genes [1]): affected the expression of OA-related genes

C=C1CC[C@H](O)C/C1=C/C=C1\CCC[C@]2(C)[C@@H]([C@H](C)CC[C@@H](O)C(C)(C)O)CC[C@@H]12 [24R,25-dihydroxyvitamin D3]
effect on expression of OA-related genes (OA-Associated Genes [1]): affected the expression of OA-related genes

N[C@H]1C(O)O[C@H](CO)[C@@H](O)[C@@H]1O (some centres unmarked) [Glucosamine, glucosamine]
effect on OA-associated genes (OA-Associated Genes [2]): have an effect on a variety of OA-associated genes

CCCCC/C=C\C/C=C\C/C=C\C/C=C\CCCC(=O)O [arachidonic acid (AA), arachidonic acid]
effect on OA-related genes (OA-Associated Genes [3]): affect OA-related genes

chondroitin sulfate
effect on OA-associated genes (OA-Associated Genes [4]): have an effect on a wide variety of OA-associated genes
